# Columns and labels:
# [1] = tested on: recreationally active participants; assay: Serial subtraction test (SST) of cognitive function; type: in vivo, human; details: 30 minutes after supplementation; for SST score (average time per correct calculation): 200 mg oral, crossover, 20 participants
# Description: Following supplementation, participants performed all non-fatiguing tests first.
# [2] = tested on: recreationally active participants; assay: Visual analog scale (VAS) for jitteriness; details: 200 mg caffeine; compared to αGPC-H (400 mg), but not αGPC-L or PL; 30 minutes after supplementation
# Protocol: (§1) Upon arrival to the Human Performance Laboratory at Angelo State University on each of the 4 testing sessions, participants were provided with a sample of the supplement. Participants were assigned to consume a placebo, 200 mg of caffeine, 200 mg of α-GPC, and 400 mg of α-GPC in a randomized, double-blind, placebo controlled, cross-over manner. After consuming the supplement, participants waited 30 minutes before completing the testing protocol. All participants were advised that they should not have had anything to eat or drink, except for water, in the previous 8 hours. Additionally, participants were asked to refrain from consuming any food or beverages that contain caffeine or other stimulants for at least 24 hours prior to completing the testing sessions.
# (§2) Twenty participants (10 males, 10 females; 22.0±3.4 years of age; height 171.9±7.4 cm; weight 56.8±8.6 kg) consumed 200 mg of αGPC (αGPC-L, Alpha-Size®, Chemi Nutra, Austin, Tex. USA), 400 mg of Alpha-GPC (αGPC-H), 200 mg of caffeine (CA), and a placebo (PL) in a randomized, double-blind, placebo-controlled, crossover design. Participants performed the following measurements 30 minutes after supplementation: visual analog scales (VAS) for six different moods, a serial subtraction test (SST), and tests for reaction time, hand-eye coordination, power, speed and agility.
# [3] = tested on: recreationally active participants; assay: Vertical jump test, peak power (Tendo Unit); type: in vivo, human; details: 30 minutes after supplementation
# Protocol: Participants were scored by the total number of successful catches. Following the non-fatiguing tests, the participants performed a standardized warm-up in which they walked on a treadmill for 5 minutes at 3 miles per hour. Following the warm-up, participants performed the fatiguing tests which included vertical jump, broad jump, 40 yard dash, and the pro-agility shuttle. […] Participants then performed three attempts for the standing broad jump. Maximum broad jump distance was recorded. Lastly, participants performed one 40 yard dash and one pro-agility shuttle (5-10-5 drill) on an indoor, wooden gymnasium floor. Times was measured by hand and recorded.
# as §1, §2
# [4] = tested on: healthy, college-aged males; assay: Isometric mid-thigh pull (IMTP) peak force; type: in vivo, human
# Protocol: (§3) The Institutional Review Board at the University of Louisiana at Lafayette reviewed the present investigation for ethics. The study was a double-blind, placebo-controlled crossover with a 1-week washout period that included 13 healthy, college-aged males (Means±SD; Age: 21.9±2.2 years, Height: 180.3±7.7 cm; Weight: 87.6±15.6 kg, VO2 max: 40.08±7.23 ml O2*kg^−1; body fat: 17.5±4.6%). Subjects reported to the lab and give informed consent, which included consent to publish, prior to baseline assessments, which included height and weight, an assessment of maximum aerobic capacity via a COSMED CPET system (COSMED, Rome ITL) with integrated electronically braked cycle ergometer as outlined in previous studies incorporated herein by reference (5) and body fat percentage via air displacement plethysmography (Bod Pod Gold Standard System, COSMED Rome, ITL). The following week trial one (random order: either placebo or 600 mg of αGPC) began. For the trials baseline performance testing was done and they were given an initial dose (placebo or α-GPC) while in the lab, 1 h later the performance testing (isometric mid-thigh pull, upper body isometric test) was repeated. The subjects were then given 6 days of additional pre-packaged supplement to take (morning and evening). The subjects reported back on day 6 of this period to repeat performance testing after the final dose of supplement. After a 1-week washout period, the subjects repeated the trial with the other treatment (see FIG. 4).
# The treatments consisted of 600 mg daily of α-GPC (Alphasize®, ChemiNutra, Austin Tex.) or a placebo. Both treatments were administered in the same capsules (gel caps) and were the same color (white). The α-GPC capsules were supplied with a certificate of analysis from a third party lab confirming the amount of active ingredient. The placebo capsule consisted of microcrystalline cellulose and magnesium stearate (Nature's Supplements, Carlsbad, Calif. USA). Both the participant and researcher were unaware of the identity of either treatment until the end of the study. […]
# The isometric mid-thigh pull test (IMTP) is a well validated strength measure (Beckman, G, et al. “Relationship of isometric mid-thigh pull variables to weightlifting performance.” J. Sports Med. Phys Fitness 2010; 35:573-81). […] The height of the bar was adjusted so that the participant was in a position where the torso was upright (assessed via a contractors box level), the knees achieved between 120-130° of flexion (measured via a goniometer) and the arms were straight while holding the bar. […] The peak force was assessed at a sampling rate of 2000 Hz using an AMT1 Force Plate. […]
# (§4) Reliability was assessed for the isometric tests via Intra Class Correlation Coefficients (ICC). […]
# [5] = tested on: healthy, college-aged males; assay: Upper body isometric test (UBIST) peak force; type: in vivo, human; details: 600 mg daily
# Protocol: as §3, with “4). […]” for “4).”
# The participants were positioned on three elevated platforms with the chest directly suspended over a load cell anchored into the concrete floor of the lab (iLoad Pro, Loadstar Sensors, Fremont Calif.). […] The participants were placed in a push-up style position, with the hands at 150% of biacromial width, and the elbows at 90° of extension (measured via a goniometer). […] The load cell was set to capture data at maximum rate (150 Hz) and the data was exported and analyzed in JMP 11.0 (SAS Institute Inc, Ca1y NC). […]
# as §4
Compound,SST score (average time per correct calculation) [1] [s],scores on the VAS for jitteriness [2],Vertical Jump Peak Power ([3]; 200 mg oral),Vertical Jump Peak Power higher in comparison to PL ([3]; 200 mg oral) [%],"magnitude based inference: likely beneficial for increasing lower body isometric force production ([4]; 600 mg daily, 6 days) [%]","IMTP effect size (ES, Cohen's d), treatment by time ([4]; 600 mg daily, day 6, vs placebo)","IMTP performance, acute treatment effect (repeated measures Anova) ([4]; 1 h after the initial dose, vs placebo)","increase in lower body isometric strength ([4]; 6 days of supplementation, 600 mg daily) [%]",SST scores faster compared to CA ([1]; 200 mg αGPC (αGPC-L) vs 200 mg caffeine) [%],SST scores faster compared to PL ([1]; 200 mg αGPC (αGPC-L) vs placebo) [%],Vertical Jump Peak Power ([3]; 400 mg oral (αGPC-H)),Vertical Jump Peak Power higher in comparison to PL ([3]; 400 mg oral (αGPC-H)) [%],magnitude based inference: likely beneficial for increasing upper body isometric force ([5]; 6 days) [%],"UBIST force production, change from baseline ([5]; baseline to day 6) [N]","UBIST effect size (ES, Cohen's d), treatment by time ([5]; day 6, vs placebo)"
"Cn1c(=O)c2c(ncn2C)n(C)c1=O [CA, caffeine]",7.32 ± 5.67,significantly higher,"1,920.4±689.6 W",2.0,–,–,–,–,–,–,–,–,–,–,–
α-Glycerophosphocholine [αGPC],6.19 ± 2.21,–,"2,041.3±547.2 W",8.5,86.5,0.961,did not reveal any main effects,> 3,18.1,10.5,"2,023.1±942.8 W",7.5,68.3,50.9±167.2,0.714
